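Briefly, cells in 96-well plates were exposed to five compound concentrations for 48 h, and endpoints were estimated by linear interpolation. Abbreviation: GI50, concentration required for 50% inhibition of growth.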 Active and inactive are the calls of the source. Rule as the data show it: active = GI50 up to about 1.1 µM and inactive = higher.
Experiments:
Test in all cases: NCI anticancer screen, dose series, 48 h
MCF7 = test system: MCF7
U-251 = test system: U-251
SN12C = test system: SN12C
EKVX = test system: EKVX
NCI/ADR-RES = test system: NCI/ADR-RES
M14 = test system: M14
NCI-H226 = test system: NCI-H226
OVCAR-8 = test system: OVCAR-8
CAKI-1 = test system: CAKI-1
COLO 205 = test system: COLO 205
UO-31 = test system: UO-31
UACC-257 = test system: UACC-257
LOX IMVI = test system: LOX IMVI
Malme-3M = test system: Malme-3M
TK-10 = test system: TK-10
HCT-15 = test system: HCT-15
Hs-578T = test system: Hs-578T
SK-OV-3 = test system: SK-OV-3
SNB-75 = test system: SNB-75
T47D = test system: T47D

Cc1ccc(S(=O)(=O)N/N=C2/C(=O)Nc3c(Cl)cc(Cl)cc32)cc1
GI50 (MCF7): 75 µM (inactive)
GI50 (U-251): 58.1 µM (inactive)
GI50 (SN12C): > 100 µM (inactive)
GI50 (EKVX): 5.52 µM (inactive)
GI50 (NCI/ADR-RES): 40 µM (inactive)
GI50 (M14): 73.5 µM (inactive)
GI50 (NCI-H226): > 100 µM (inactive)
GI50 (OVCAR-8): 38.8 µM (inactive)
GI50 (CAKI-1): 59.4 µM (inactive)
GI50 (COLO 205): 68.7 µM (inactive)
GI50 (UO-31): 41.6 µM (inactive)
GI50 (UACC-257): > 100 µM (inactive)
GI50 (LOX IMVI): 37.8 µM (inactive)
GI50 (Malme-3M): 91.4 µM (inactive)
GI50 (TK-10): 79.1 µM (inactive)
GI50 (HCT-15): 68.9 µM
GI50 (Hs-578T): 76.6 µM (inactive)
GI50 (SK-OV-3): > 100 µM (inactive)

COc1ccc(-c2c(-c3ccc(OC)cc3)n3c(=O)n(C)c(=O)n23)cc1
GI50 (MCF7): > 100 µM (inactive)
GI50 (U-251): > 100 µM (inactive)
GI50 (SN12C): 34 µM (inactive)
GI50 (EKVX): 34.9 µM (inactive)
GI50 (SNB-75): > 100 µM (inactive)
GI50 (T47D): 20.6 µM (inactive)
GI50 (NCI/ADR-RES): 18.4 µM (inactive)
GI50 (M14): > 100 µM (inactive)
GI50 (NCI-H226): 60.4 µM (inactive)
GI50 (OVCAR-8): 17.6 µM (inactive)
GI50 (CAKI-1): > 100 µM (inactive)
GI50 (COLO 205): > 100 µM (inactive)
GI50 (UO-31): 32.3 µM (inactive)
GI50 (UACC-257): 50.5 µM (inactive)
GI50 (LOX IMVI): > 100 µM (inactive)
GI50 (Malme-3M): 91.6 µM (inactive)
GI50 (TK-10): 33.3 µM (inactive)
GI50 (HCT-15): 81.5 µM
GI50 (SK-OV-3): 50.5 µM (inactive)

Cc1cc(S(=O)(=O)[N-]/C(=N/S(=O)(=O)c2ccc(Cl)cc2)[n+]2ccc(N(C)C)cc2)c(SCC(=O)O)cc1Cl
GI50 (MCF7): 43.8 µM (inactive)
GI50 (U-251): > 100 µM (inactive)
GI50 (SN12C): > 100 µM (inactive)
GI50 (EKVX): 46.8 µM (inactive)
GI50 (SNB-75): 20.5 µM (inactive)
GI50 (T47D): > 100 µM (inactive)
GI50 (M14): 25.2 µM (inactive)
GI50 (NCI-H226): 52.7 µM (inactive)
GI50 (OVCAR-8): > 100 µM (inactive)
GI50 (CAKI-1): > 100 µM (inactive)
GI50 (COLO 205): > 100 µM (inactive)
GI50 (UO-31): > 100 µM (inactive)
GI50 (UACC-257): > 100 µM (inactive)
GI50 (LOX IMVI): > 100 µM (inactive)
GI50 (Malme-3M): 33.2 µM (inactive)
GI50 (TK-10): 86.5 µM (inactive)
GI50 (HCT-15): > 100 µM
GI50 (Hs-578T): > 100 µM (inactive)
GI50 (SK-OV-3): 75 µM (inactive)

COc1ccc(CCN2CCOCC2)cc1
GI50 (MCF7): > 100 µM (inactive)
GI50 (U-251): > 100 µM (inactive)
GI50 (SN12C): > 100 µM (inactive)
GI50 (EKVX): > 100 µM (inactive)
GI50 (T47D): > 100 µM (inactive)
GI50 (NCI/ADR-RES): > 100 µM (inactive)
GI50 (M14): > 100 µM (inactive)
GI50 (NCI-H226): > 100 µM (inactive)
GI50 (CAKI-1): > 100 µM (inactive)
GI50 (COLO 205): > 100 µM (inactive)
GI50 (UO-31): > 100 µM (inactive)
GI50 (UACC-257): > 100 µM (inactive)
GI50 (LOX IMVI): > 100 µM (inactive)
GI50 (Malme-3M): > 100 µM (inactive)
GI50 (TK-10): > 100 µM (inactive)
GI50 (HCT-15): > 100 µM
GI50 (Hs-578T): > 100 µM (inactive)
GI50 (SK-OV-3): > 100 µM (inactive)

CCCCN/N=N/c1cn(C2OC(CO)C(O)C2O)c(=O)[nH]c1=O (centres undefined)
GI50 (MCF7): > 100 µM (inactive)
GI50 (SN12C): > 100 µM (inactive)
GI50 (EKVX): > 100 µM (inactive)
GI50 (T47D): > 100 µM (inactive)
GI50 (NCI/ADR-RES): > 100 µM (inactive)
GI50 (M14): > 100 µM (inactive)
GI50 (NCI-H226): > 100 µM (inactive)
GI50 (OVCAR-8): > 100 µM (inactive)
GI50 (CAKI-1): > 100 µM (inactive)
GI50 (COLO 205): > 100 µM (inactive)
GI50 (UACC-257): > 100 µM (inactive)
GI50 (LOX IMVI): > 100 µM (inactive)
GI50 (Malme-3M): > 100 µM (inactive)
GI50 (TK-10): > 100 µM (inactive)
GI50 (HCT-15): > 100 µM
GI50 (Hs-578T): > 100 µM (inactive)
GI50 (SK-OV-3): > 100 µM (inactive)

CC(NC(=O)c1ccc(OP(=O)(OCc2ccc([N+](=O)[O-])o2)N(C)CCCCCl)cc1)c1ccc(OCC2CCCCC2)c(C(N)=O)c1 (centres undefined)
GI50 (MCF7): 2.77 µM (inactive)
GI50 (U-251): 4.29 µM (inactive)
GI50 (SN12C): 2.25 µM (inactive)
GI50 (EKVX): 14.3 µM (inactive)
GI50 (SNB-75): 4.56 µM (inactive)
GI50 (T47D): 2.06 µM (inactive)
GI50 (NCI/ADR-RES): > 36.6 µM (inactive)
GI50 (M14): 3.67 µM (inactive)
GI50 (NCI-H226): 3.98 µM (inactive)
GI50 (OVCAR-8): 4.49 µM (inactive)
GI50 (CAKI-1): 12.4 µM (inactive)
GI50 (COLO 205): 2.61 µM (inactive)
GI50 (UO-31): 1.83 µM (inactive)
GI50 (UACC-257): 3.87 µM (inactive)
GI50 (LOX IMVI): 1.87 µM (inactive)
GI50 (Malme-3M): 2.52 µM (inactive)
GI50 (TK-10): 6.43 µM (inactive)
GI50 (HCT-15): 2.45 µM
GI50 (SK-OV-3): > 33.1 µM (inactive)

CCN(CC)CCN(/C(=N/c1ccccc1)N1CCCCC1)c1ccccc1
GI50 (MCF7): 5.53 µM (inactive)
GI50 (U-251): 12.7 µM (inactive)
GI50 (SN12C): 7 µM (inactive)
GI50 (EKVX): 14.1 µM (inactive)
GI50 (SNB-75): > 10 µM (inactive)
GI50 (T47D): 2.31 µM (inactive)
GI50 (M14): 6.34 µM (inactive)
GI50 (NCI-H226): 9.23 µM (inactive)
GI50 (OVCAR-8): 12.2 µM (inactive)
GI50 (CAKI-1): 27.8 µM (inactive)
GI50 (COLO 205): 2.3 µM (inactive)
GI50 (UO-31): 8.07 µM (inactive)
GI50 (UACC-257): 10.6 µM (inactive)
GI50 (LOX IMVI): 3.14 µM (inactive)
GI50 (Malme-3M): 15.5 µM (inactive)
GI50 (TK-10): 13.2 µM (inactive)
GI50 (HCT-15): 17.2 µM
GI50 (Hs-578T): 10.3 µM (inactive)
GI50 (SK-OV-3): 11.9 µM (inactive)

From ChEMBL document CHEMBL1201862, “PubChem BioAssay data set” (2004)
